Drawing on PubChem BioAssay (NCI), this text covers GI50 and TGI for 18 molecules.

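Exposure lasted 48 hours, with cells grown in 96-well plates and compounds tested at five concentrations. GI50 marks 50% less growth. TGI marks complete inhibition of growth.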

What is called GI50 is the concentration at which growth is held to half of that of the control. Broadly, the TGI is the concentration giving total growth inhibition. A high value points to lower sensitivity of the cells.

Among the test systems are CAKI-1 renal; HCC-2998 colon; LOX IMVI melanoma; SN12C renal; U251 CNS; BT-549 breast; HL-60(TB) leukemia; SF-539 CNS; UACC-257 melanoma.
Assay in all cases: DTP human tumour cell line panel, 48 h

As to `C=C(C)C1CC/C(C)=C/CC[C@]2(C)O[C@@H]2CCC2=CC1OC2=O` (stereo not given in full), the GI50 in the assay with CAKI-1 renal was 19 µM; in the assay with HCC-2998 colon it was 80 µM; with LOX IMVI melanoma, 15.1 µM; with SN12C renal it was 78.8 µM; with U251 CNS, 21.7 µM. Besides, the total growth inhibition concentration (TGI) in the assay on CAKI-1 renal is 49.1 µM; in the assay on HCC-2998 colon, greater than 100 µM; with LOX IMVI melanoma, 48.2 µM; in the assay with SN12C renal, greater than 100 µM; in the assay with U251 CNS it was greater than 100 µM.

For the molecule `Cc1ccc(S(=O)(=O)NC(=O)NC(CCCCN=C(N)N)C(=O)O)cc1` (stereo not given), the TGI with BT-549 breast, in the assay with HL-60(TB) leukemia, in the assay with LOX IMVI melanoma, in the assay on SF-539 CNS, in the assay with SN12C renal and in the assay with U251 CNS was greater than 100 µM in each case. This molecule also showed a TGI in the assay on UACC-257 melanoma greater than 100 µM.

For the molecule `CCN(CC)CCCNC(=O)c1cc2cc(NC(=O)c3cc4cc([N+](=O)[O-])ccc4[nH]3)ccc2[nH]1`, the TGI in the assay on BT-549 breast is greater than 100 µM; in the assay with CAKI-1 renal, greater than 100 µM; with HCC-2998 colon, greater than 100 µM; with SF-539 CNS it was greater than 100 µM; with SN12C renal, greater than 100 µM; in the assay with UACC-257 melanoma, 76.9 µM.

For the molecule `Cc1c(OCc2ccccc2)c(=O)ccn1CCc1c[nH]c2ccccc12`, the TGI in the assay on BT-549 breast, in the assay on LOX IMVI melanoma, in the assay with SF-539 CNS, with SN12C renal, with U251 CNS and in the assay on UACC-257 melanoma was greater than 100 µM throughout.

Turning to `OCC(CCc1ccccc1I)C1=CCC2(CC1)OCCO2` (stereo not given), the TGI with CAKI-1 renal was determined as 65.2 µM; in the assay with HCC-2998 colon, 43.4 µM; in the assay with HL-60(TB) leukemia it was 28.9 µM; in the assay on LOX IMVI melanoma, 29.1 µM; with SF-539 CNS it was 32.5 µM; in the assay with U251 CNS, 41.8 µM. For the same molecule, the TGI in the assay on UACC-257 melanoma is 45.1 µM.

Turning to `COC(=O)[C@@](C)(COC(=O)C(C)(C)C)NC(=O)OC(C)(C)C`, the total growth inhibition concentration (TGI) in the assay with BT-549 breast, in the assay with CAKI-1 renal, in the assay on HCC-2998 colon, with LOX IMVI melanoma, in the assay with SF-539 CNS and with SN12C renal was greater than 100 µM in each case. For the same molecule, the concentration for total growth inhibition (TGI) with U251 CNS and with UACC-257 melanoma was greater than 100 µM each time.

As to `COC(=O)CCc1c(Cc2ccc[nH]2)[nH]c(C(=O)OCc2ccccc2)c1C`, the TGI with CAKI-1 renal worked out at 64.7 µM; in the assay on LOX IMVI melanoma it was 35.1 µM; in the assay with SF-539 CNS it was 37.5 µM; with SN12C renal, 35.6 µM; in the assay on U251 CNS, 44.1 µM; with UACC-257 melanoma, 38.9 µM.

For the molecule `NC(=O)c1cc(N(CCO)CCO)c([N+](=O)[O-])cc1[N+](=O)[O-]`, the total growth inhibition concentration (TGI) with CAKI-1 renal, in the assay on HCC-2998 colon, in the assay on HL-60(TB) leukemia, in the assay with LOX IMVI melanoma, in the assay on SF-539 CNS and with SN12C renal was greater than 100 µM throughout. The total growth inhibition concentration (TGI) with U251 CNS and with UACC-257 melanoma was greater than 100 µM each time.

In the case of `COc1ccc(C2OCCN2C)cc1` (stereo not given), the total growth inhibition concentration (TGI) in the assay on BT-549 breast, in the assay on CAKI-1 renal, in the assay with LOX IMVI melanoma, in the assay with SF-539 CNS, with U251 CNS and in the assay on UACC-257 melanoma was greater than 100 µM in each case.

For the molecule `C[N+](C)(C)C=Nc1cccc2c1CCCC2`, the TGI in the assay on BT-549 breast, in the assay on CAKI-1 renal, in the assay on HL-60(TB) leukemia, in the assay on LOX IMVI melanoma, with SF-539 CNS and with SN12C renal was greater than 100 µM each time. For the same molecule, the TGI in the assay on U251 CNS and with UACC-257 melanoma was greater than 100 µM each time.

Regarding `O=[N+]([O-])c1ccc2oc(=Nc3ccccc3)c(Nc3ccccc3)nc2c1`, the TGI with CAKI-1 renal, in the assay with HCC-2998 colon, in the assay with HL-60(TB) leukemia, in the assay on LOX IMVI melanoma, in the assay with SF-539 CNS and in the assay with SN12C renal was greater than 100 µM throughout. Moreover, the TGI in the assay on U251 CNS and with UACC-257 melanoma was greater than 100 µM throughout.

As for `O=C(Sc1c(-c2ccccc2)c(=O)n(-c2ccccc2)c(=S)n1-c1ccccc1)c1cccs1`, the total growth inhibition concentration (TGI) is greater than 100 µM in the assay with BT-549 breast; greater than 100 µM in the assay on CAKI-1 renal; greater than 100 µM in the assay with HL-60(TB) leukemia; 61.2 µM in the assay on LOX IMVI melanoma; greater than 100 µM with SN12C renal; greater than 100 µM in the assay with U251 CNS. In the assay on UACC-257 melanoma, the TGI was greater than 100 µM.

Turning to `N=C(N)SCCC(=O)CCSC(=N)N`, the TGI in the assay with HCC-2998 colon, with HL-60(TB) leukemia, in the assay with LOX IMVI melanoma, in the assay with SN12C renal, with U251 CNS and with UACC-257 melanoma was greater than 100 µM each time.

Consider `CC(C)(C)CC(C)(C)NC(=S)NO`, for which the TGI in the assay on CAKI-1 renal, with HCC-2998 colon, in the assay with HL-60(TB) leukemia, in the assay with LOX IMVI melanoma, with SF-539 CNS and in the assay with SN12C renal was greater than 100 µM each time. The total growth inhibition concentration (TGI) with UACC-257 melanoma was greater than 100 µM.

For `Cc1ccc(-c2cc(O)c3nc4ccccc4n3c2)cc1`, the TGI with BT-549 breast, in the assay on CAKI-1 renal, in the assay on HL-60(TB) leukemia, with LOX IMVI melanoma, with SF-539 CNS and with SN12C renal was greater than 100 µM each time. The total growth inhibition concentration (TGI) in the assay with U251 CNS and with UACC-257 melanoma was greater than 100 µM each time.

As for `CN1CN(c2ccccc2)C2(CCN(CCCCCCF)CC2)C1=O`, the TGI was greater than 100 µM with BT-549 breast; greater than 100 µM with CAKI-1 renal; greater than 100 µM with HL-60(TB) leukemia; greater than 100 µM with LOX IMVI melanoma; 92.4 µM in the assay on SF-539 CNS; greater than 100 µM with SN12C renal. The TGI in the assay with U251 CNS and in the assay with UACC-257 melanoma was greater than 100 µM each time.

Take `CCCC1C(=O)Nc2cccc3ncn(c23)C1=O` (stereo not given): the TGI in the assay on BT-549 breast, in the assay with CAKI-1 renal, in the assay with HL-60(TB) leukemia, in the assay on SF-539 CNS, with SN12C renal and with U251 CNS was greater than 100 µM in each case. This molecule also displayed a total growth inhibition concentration (TGI) in the assay with UACC-257 melanoma greater than 100 µM.

As to `Cc1ccc(NC2=NCCO2)c2c1CCC2`, the total growth inhibition concentration (TGI) was greater than 100 µM with CAKI-1 renal; 74.6 µM in the assay with HCC-2998 colon; 39.9 µM in the assay with HL-60(TB) leukemia; 76 µM in the assay on LOX IMVI melanoma; 56 µM in the assay with SF-539 CNS; greater than 100 µM in the assay with SN12C renal. This molecule also gave a TGI in the assay on U251 CNS greater than 100 µM.
